Assay results: patent US9765039B2, “Biaryl derivatives as bromodomain inhibitors” (Zenith Epigenetics Ltd., priority 2012, dated 2017)

Legend:
Brd4 bromodomain 1 = molecular target: T1, Brd4 bromodomain 1 (Homo sapiens, UniProt O60885); test: Inhibition of tetra-acetylated histone H4 binding to BET bromodomains (TR-FRET); design: key: Active: Compounds with an IC50 value less than 30 μM were deemed to be active.; Not Active: Compounds with an IC50 value less than 30 μM were deemed to be active; conditions: first bromodomain of Brd4, tetra-acetylated histone H4 peptide
T1 construct: made in house; host or cells: E. coli BL21(DE3)
How it was run: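 TR-FRET with N-terminally His-tagged bromodomains (200 nM, E. coli-expressed, Ni affinity and SEC-purified) and biotinylated tetra-acetylated histone H4 peptide (25–50 nM), detected with Eu-cryptate streptavidin and XL665 anti-His antibody. Buffer 30 mM HEPES pH 7.4, 320 mM KF, 0.08% BSA, 0.2% DMSO; 2 h RT. IC50 from decrease in 665/620 nm ratio.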

c-myc = test: Inhibition of c-myc expression in cancer cell lines (mRNA, real-time PCR); format: cell-based; design: key: Active: Compounds with an IC50 value less than 30 μM were deemed to be active; conditions: Human AML MV4-11 cells, 3 hours
How it was run: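 MV4-11 cells (2.5×10^4) exposed to compound or 0.1% DMSO for 3 h at 37° C, then lysed for mRNA isolation. c-myc and cyclophilin cDNAs co-amplified by duplex RT real-time PCR. IC50 from dose-response curve.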

Human AML MV-4-11 cells = test: Inhibition of cell proliferation in cancer cell lines (CellTiter Aqueous One); format: cell-based; design: key: Active: Compounds with an IC50 value less than 30 μM were deemed to be active.; Not Active: Compounds with an IC50 value less than 30 μM were deemed to be active; conditions: 72 hours
How it was run: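 Exponentially growing MV-4-11 cells were treated immediately with two-fold compound dilutions from 30 µM to 0.2 µM in triplicate for 72 h at 37 °C. Viability was read by MTS (CellTiter Aqueous One) absorbance at 490 nm after 3-4 h; % proliferation vs DMSO gave IC50.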

hIL-6 mRNA = test: Inhibition of hIL-6 mRNA transcription in LPS-stimulated U937 macrophages; format: cell-based, human; design: key: Active: Compounds with an IC50 value less than 30 μM are deemed to be active; conditions: U937 differentiated into macrophages, 1 h pretreatment, lipopolysaccharide 3 h
How it was run: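 U937 cells differentiated 3 days with 60 ng/mL PMA, pretreated 1 h with compound, then stimulated with […] E. coli LPS for 3 h at 37° C. hIL-6 mRNA quantified by one-step real-time RT-PCR, Ct normalised to internal control and expressed as fold induction relative to control.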

hApoA-1 mRNA = test: Up-regulation of hApoA-1 mRNA transcription in Huh7 cells; format: cell-based, human; design: key: Active: Compounds with an EC170 value less than 30 μM are deemed to be active.; Not Active: Compounds with an EC170 value less than 30 μM are deemed to be active; conditions: 48 hrs treatment, ApoA-I mRNA
Protocol: In this example, ApoA-I mRNA in tissue culture cells was quantitated to measure the transcriptional up-regulation of ApoA-I when treated with a compound of the present disclosure.
Huh7 cells ([…] per well) were plated in a 96-well plate using 100 μL DMEM per well, (Gibco DMEM supplemented with penicillin/streptomycin and 10% FBS), 24 h before the addition of the compound of interest. After 48 hrs treatment, the spent media was removed from the Huh-7 cells and placed on ice (for immediate use) or at −80° C. (for future use) with the “LDH cytotoxicity assay Kit II” from Abcam. The cells remaining in the plate were rinsed with 100 μL PBS.
Then 85 μL of cell lysis solution was added to each well and incubated for 5-10 minutes at room temperature, to allow for complete cell lysis and detachment. mRNA was then prepared using the “mRNA Catcher PLUS plate” from Life Technologies, according to the protocol supplied. After the last wash, as much wash buffer as possible was aspirated without allowing the wells to dry. Elution Buffer (E3, 80 μL) was then added to each well. mRNA was then eluted by incubating the mRNA Catcher PLUS plate with Elution Buffer for 5 minutes at 68° C., and then 1 minute at 4° C. Catcher plates with mRNA eluted were kept on ice for use or stored at −80° C.
The eluted mRNA isolated was then used in a one-step real-time PCR reaction, using components of the Ultra Sense Kit together with Life Technologies primer-probe mixes. Real-time PCR data was analyzed, using the Ct values, to determine the fold induction of each unknown sample, relative to the control (that is, relative to the control for each independent DMSO concentration).
Compounds with an EC170 value less than 30 μM are deemed to be active.

Structure (SMILES) | FRET activity (IC50 < 30 μM) (Brd4 bromodomain 1) | c-myc activity (IC50 < 30 μM) (c-myc) | cell proliferation activity (IC50 < 30 μM) (Human AML MV-4-11 cells) | IL-6 activity (IC50 < 30 μM) (hIL-6 mRNA) | melting point [°C] | ApoA-1 Activity (EC170 < 30 μM) (hApoA-1 mRNA)
COc1cc(OC)c2c(=O)[nH]c(-c3ccc(OCCNC(C)C)c(-c4ccc(C(=O)N(C)C)cc4)n3)nc2c1 [Example 26, 4-(6-(5,7-Dimethoxy-4-oxo-3,4-dihydroquinazolin-2-yl)-3-(2-(isopropylamino)ethoxy)pyridin-2-yl)-N,N-dimethylbenzamide] | Active | Active | Active | Active | 214 to 215 | Active
COc1cc(OC)c2c(=O)[nH]c(-c3ccc(OCCN4CCCC4)c(-c4ccc(S(C)(=O)=O)cc4)n3)nc2c1.Cl [Example 29, 5,7-Dimethoxy-2-(6-(4-(methylsulfonyl)phenyl)-5-(2-(pyrrolidin-1-yl)ethoxy)pyridin-2-yl)quinazolin-4(3H)-one hydrochloride] | Active | Active | Active | Active | 211 to 213 | Active
COc1cc(OC)c2c(=O)[nH]c(-c3ccc(OCCO)c(-c4cccc([S+](C)[O-])c4)n3)nc2c1 (stereo not drawn) [Example 37, 2-(5-(2-Hydroxyethoxy)-6-(3-(methylsulfinyl)phenyl)pyridin-2-yl)-5,7-dimethoxyquinazolin-4(3H)-one] | Active | Active | Not Active | Active | 272 to 273 | Active
COc1cc(OC)c2c(=O)[nH]c(-c3ccc(OCCO)c(-c4ccc([S+](C)[O-])cc4)n3)nc2c1 (stereo not drawn) [Example 38, 2-(5-(2-Hydroxyethoxy)-6-(4-(methylsulfinyl)phenyl)pyridin-2-yl)-5,7-dimethoxyquinazolin-4(3H)-one] | Active | Active | Active | Active | 281 to 282 | Active
COc1cc(OC)c2c(=O)[nH]c(-c3ccc(OCCNC(C)C)c(-c4cccc([S+](C)[O-])c4)n3)nc2c1 (stereo not drawn) [Example 40, 2-(5-(2-(Isopropylamino)ethoxy)-6-(3-(methylsulfinyl)phenyl)pyridin-2-yl)-5,7-dimethoxyquinazolin-4(3H)-one] | Active | Active | Active | Active | 156 to 157 | Active

The next lines start with results.

FRET activity (IC50 < 30 μM) (Brd4 bromodomain 1) | c-myc activity (IC50 < 30 μM) (c-myc) | cell proliferation activity (IC50 < 30 μM) (Human AML MV-4-11 cells) | IL-6 activity (IC50 < 30 μM) (hIL-6 mRNA) | melting point [°C] | Structure (SMILES) | ApoA-1 Activity (EC170 < 30 μM) (hApoA-1 mRNA)
Active | Active | Active | Active | 202 to 203 | COc1cc(OC)c2c(=O)[nH]c(-c3ccc(OCCNC(C)C)c(-c4ccc(S(C)(=O)=O)cc4C)n3)nc2c1 [Example 45, 2-(5-(2-(Isopropylamino)ethoxy)-6-(2-methyl-4-(methylsulfonyl)phenyl)pyridin-2-yl)-5,7-dimethoxyquinazolin-4(3H)-one] | Active
Active | Active | Active | Active | 199 to 201 | COc1cc(OC)c2c(=O)[nH]c(-c3ccc(OCCNC(C)C)c(-c4ccc(S(C)(=O)=O)cc4C(F)(F)F)n3)nc2c1 [Example 46, 2-(5-(2-(Isopropylamino)ethoxy)-6-(4-(methylsulfonyl)-2-(trifluoromethyl)phenyl)pyridin-2-yl)-5,7-dimethoxyquinazolin-4(3H)-one] | Active
Active | Not Active | Active | Active | 281 to 282 | COc1cc(OC)c2c(=O)[nH]c(-c3cccc(-c4ccc([S+](C)[O-])cc4)n3)nc2c1 (stereo not drawn) [Example 49, 5,7-Dimethoxy-2-(6-(4-(methylsulfinyl)phenyl)pyridin-2-yl)quinazolin-4(3H)-one] | Active
Active | Not Active | Not Active | Not Active | 114 to 116 | COc1cc(OC)c2c(=O)[nH]c(-c3ccc(OCCN(C(=O)OC(C)(C)C)C(C)C)c(-c4ccc([S+](C)[O-])cc4)n3)nc2c1 (stereo not drawn) [Example 53, tert-Butyl (2-((6-(5,7-dimethoxy-4-oxo-3,4-dihydroquinazolin-2-yl)-2-(4-(methylsulfinyl)phenyl)pyridin-3-yl)oxy)ethyl)(isopropyl)carbamate] | Active
Active | Not Active | Active | Active | 103 to 105 | COc1cc(OC)c2c(=O)[nH]c(-c3ccc(OCCN4CCCC4)c(-c4ccc([S+](C)[O-])cc4)n3)nc2c1 (stereo not drawn) [Example 55, 5,7-Dimethoxy-2-(6-(4-(methylsulfinyl)phenyl)-5-(2-(pyrrolidin-1-yl)ethoxy)pyridin-2-yl)quinazolin-4(3H)-one] | Active
Active | Active | Not Active | Active | > 300 | COc1cc(OC)c2c(=O)[nH]c(-c3ccc(OC)c(-c4ccc(C(=O)N(C)C)cc4Cl)c3)nc2c1 [Example 59, 2-Chloro-5′-(5,7-dimethoxy-4-oxo-3,4-dihydroquinazolin-2-yl)-2′-methoxy-N,N-dimethyl-[1,1′-biphenyl]-4-carboxamide] | Active
Active | Active | Active | Not Active | 204 to 205 | COc1ccc2c(=O)[nH]c(-c3ccc(OCCNC(C)C)c(-c4ccc(S(C)(=O)=O)cc4)n3)nc2c1 [Example 67] | Active
